Measured values from patent US12435072B2, “Compounds” (Vicore Pharma AB, priority 2019, dated 2025).
Where two headings read alike, the source gives them in different places.

Key:
CYP2B6 = target: T1, CYP2B6 (Homo sapiens, UniProt P20813); test: CYP inhibition in human liver microsomes, CYP2B6; format: in vitro ADME; conditions: probe bupropion, substrate bupropion, read-out: CYP2B6 Inh %
T1 construct: incubated with human liver microsomes; tissue Eurofins ITEMG232; host or cells: human liver microsomes
T1 sequence (P20813 1-491): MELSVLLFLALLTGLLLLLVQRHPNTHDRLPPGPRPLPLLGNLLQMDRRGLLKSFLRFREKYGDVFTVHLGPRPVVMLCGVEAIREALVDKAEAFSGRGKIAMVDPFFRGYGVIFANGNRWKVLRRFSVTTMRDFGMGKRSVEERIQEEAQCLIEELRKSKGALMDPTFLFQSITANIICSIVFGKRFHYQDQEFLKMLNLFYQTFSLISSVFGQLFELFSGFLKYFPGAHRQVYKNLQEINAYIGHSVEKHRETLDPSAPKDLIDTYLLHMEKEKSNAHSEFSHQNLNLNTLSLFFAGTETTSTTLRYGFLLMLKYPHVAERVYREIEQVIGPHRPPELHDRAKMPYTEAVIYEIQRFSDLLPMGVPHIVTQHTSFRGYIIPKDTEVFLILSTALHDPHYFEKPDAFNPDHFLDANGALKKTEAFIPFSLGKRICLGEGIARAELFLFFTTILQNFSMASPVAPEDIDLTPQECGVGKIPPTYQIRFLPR
Description: (§1) The following substrates were used: CYP1A phenacetin, CYP2B6 bupropion, CYP2C8 paclitaxel and amodiaquine, CYP2C9 diclofenac, CYP2C19 omeprazole, CYP2D6 dextromethorphan, CYP3A midazolam and testosterone. At the end of the incubation, the formation of metabolite was monitored by HPLC-MS/MS as the peak area response.

CYP2C9 = CYP2C9 (Homo sapiens, UniProt P11712); test: CYP inhibition in human liver microsomes, CYP2C9; format: in vitro ADME; set-up: incubated with human liver microsomes; tissue Eurofins ITEMG232; host or cells: human liver microsomes; conditions: probe diclofenac, substrate diclofenac, read-out: CYP2C9 Inh %
Description: as §1

CYP1A = target: T2, CYP1A (Homo sapiens, UniProt P05177); test: CYP inhibition in human liver microsomes, CYP1A; format: in vitro ADME; conditions: probe phenacetin, substrate phenacetin, read-out: CYP1A Inh %
T2 construct: incubated with human liver microsomes; tissue Eurofins ITEMG232; host or cells: human liver microsomes
T2 sequence (P05177 1-516): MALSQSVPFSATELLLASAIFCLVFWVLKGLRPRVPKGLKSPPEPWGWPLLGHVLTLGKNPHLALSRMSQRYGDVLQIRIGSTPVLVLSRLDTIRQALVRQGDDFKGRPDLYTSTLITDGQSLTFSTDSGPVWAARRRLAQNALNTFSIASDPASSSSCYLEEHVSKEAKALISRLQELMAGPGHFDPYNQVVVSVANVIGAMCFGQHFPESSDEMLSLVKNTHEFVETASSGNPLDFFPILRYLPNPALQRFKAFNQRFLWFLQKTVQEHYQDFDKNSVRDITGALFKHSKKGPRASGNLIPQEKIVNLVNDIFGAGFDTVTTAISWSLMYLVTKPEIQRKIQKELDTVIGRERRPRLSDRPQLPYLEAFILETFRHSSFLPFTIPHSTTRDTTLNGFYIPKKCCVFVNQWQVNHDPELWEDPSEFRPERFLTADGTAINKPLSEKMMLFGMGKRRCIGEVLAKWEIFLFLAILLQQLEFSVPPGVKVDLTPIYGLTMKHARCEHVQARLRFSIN
Description: as §1

CYP2C8 = target: T3, CYP2C8 (Homo sapiens, UniProt P10632); test: CYP inhibition in human liver microsomes, CYP2C8; format: in vitro ADME; conditions: probe paclitaxel and amodiaquine, substrate paclitaxel and amodiaquine, read-out: CYP2C8 Inh %
T3 construct: incubated with human liver microsomes; tissue Eurofins ITEMG232; host or cells: human liver microsomes
T3 sequence (P10632 1-490): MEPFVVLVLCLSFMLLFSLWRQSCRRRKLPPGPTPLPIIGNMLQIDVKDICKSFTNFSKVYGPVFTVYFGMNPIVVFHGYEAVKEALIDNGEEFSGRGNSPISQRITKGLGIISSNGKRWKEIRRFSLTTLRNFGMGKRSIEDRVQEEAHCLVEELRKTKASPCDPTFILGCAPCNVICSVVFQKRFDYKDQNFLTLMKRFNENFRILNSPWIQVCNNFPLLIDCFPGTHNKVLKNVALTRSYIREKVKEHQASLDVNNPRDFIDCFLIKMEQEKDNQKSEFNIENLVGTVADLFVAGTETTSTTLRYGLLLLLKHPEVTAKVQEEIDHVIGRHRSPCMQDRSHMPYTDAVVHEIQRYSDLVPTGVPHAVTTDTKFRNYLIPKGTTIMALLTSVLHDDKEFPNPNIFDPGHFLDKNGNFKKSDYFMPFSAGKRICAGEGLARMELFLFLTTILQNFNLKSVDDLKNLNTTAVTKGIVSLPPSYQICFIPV
Description: as §1

CYP2C19 = target: T4, CYP2C19 (Homo sapiens, UniProt P33261); test: CYP inhibition in human liver microsomes, CYP2C19; format: in vitro ADME; conditions: probe omeprazole, substrate omeprazole, read-out: CYP2C19 Inh %
T4 construct: incubated with human liver microsomes; tissue Eurofins ITEMG232; host or cells: human liver microsomes
Description: as §1

CYP2D6 = target: T5, CYP2D6 (Homo sapiens, UniProt P10635); test: CYP inhibition in human liver microsomes, CYP2D6; format: in vitro ADME; conditions: probe dextromethorphan, substrate dextromethorphan, read-out: CYP2D6 Inh %
T5 construct: incubated with human liver microsomes; tissue Eurofins ITEMG232; host or cells: human liver microsomes
Description: as §1

CYP3A4&5 = test: CYP inhibition in human liver microsomes, CYP3A4&5 (testosterone); format: in vitro ADME; conditions: probe testosterone, substrate testosterone, read-out: CYP3A4&5 testosterone Inh %
Description: as §1

[1] = Metabolic stability in pooled human liver microsomes; format: in vitro ADME; conditions: pooled human liver microsomes 0.5 mg/ml, 1 μM test compound, 37° C.
Description: Pooled human liver microsomes in PBS at a concentration of 0.5 mg/ml was incubated with or without 1 mM NADPH for 70 min at 37° C. Test compound was added after 10 minutes to a final concentration of 1 μM. Samples were withdrawn at 0, 5, 15 and 60 minutes and added to test tubes containing acetonitrile, to stop the reaction, and with terfenadine, used as internal standard. After centrifugation at 10 000×g for 5 minutes the supernatant was diluted 1:1 with 1% formic acid. Samples were separated on a reverse phase column and detected by triple quadrupole MSMS (Agilant model 6540). The concentration of the parent compound at the different time points was measured with an external standard curve using terfenadine as internal standard and the initial metabolic rate in the presence or absence of NADPH calculated.

CYP3A4 = CYP3A4 (Homo sapiens, UniProt P08684); test: CYP inhibition in human liver microsomes, CYP3A4 (midazolam); format: in vitro ADME; set-up: incubated with human liver microsomes; tissue Eurofins ITEMG232; host or cells: human liver microsomes; conditions: probe midazolam, substrate midazolam, read-out: CYP3A4 midazolam Inh %
Description: as §1

[2] = target: T6, human recombinant AT2 receptor (Homo sapiens, UniProt P50052); test: Binding to AT2 receptor, radiometric scintillation assay (Eurofins); conditions: ligand 125I CGP 42112A, tested at 1, 10, 100 and 1000 nM
T6 construct: purchased Eurofins ITEM26
T6 sequence (P50052 1-363): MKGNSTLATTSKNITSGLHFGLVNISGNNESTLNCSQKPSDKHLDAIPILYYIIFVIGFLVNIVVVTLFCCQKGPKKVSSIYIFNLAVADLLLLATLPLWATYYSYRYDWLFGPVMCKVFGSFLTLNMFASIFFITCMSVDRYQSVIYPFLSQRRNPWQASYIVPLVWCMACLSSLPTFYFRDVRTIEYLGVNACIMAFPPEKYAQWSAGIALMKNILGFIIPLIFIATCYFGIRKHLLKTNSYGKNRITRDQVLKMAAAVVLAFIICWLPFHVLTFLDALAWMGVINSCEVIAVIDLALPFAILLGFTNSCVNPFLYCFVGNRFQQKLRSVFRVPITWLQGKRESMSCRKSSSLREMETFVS
Description: Compounds were evaluated for binding to the human recombinant AT2 and AT1 receptor according to Eurofins protocol ITEM26 and ITEM24 using a radiometric scintillation assay.

[3] = with 1 mM NADPH, read-out: T1/2, + NaDPH
[4] = without NADPH, read-out: T1/2, no NaDPH

Sequence of CYP2C9 (P11712 whole entry): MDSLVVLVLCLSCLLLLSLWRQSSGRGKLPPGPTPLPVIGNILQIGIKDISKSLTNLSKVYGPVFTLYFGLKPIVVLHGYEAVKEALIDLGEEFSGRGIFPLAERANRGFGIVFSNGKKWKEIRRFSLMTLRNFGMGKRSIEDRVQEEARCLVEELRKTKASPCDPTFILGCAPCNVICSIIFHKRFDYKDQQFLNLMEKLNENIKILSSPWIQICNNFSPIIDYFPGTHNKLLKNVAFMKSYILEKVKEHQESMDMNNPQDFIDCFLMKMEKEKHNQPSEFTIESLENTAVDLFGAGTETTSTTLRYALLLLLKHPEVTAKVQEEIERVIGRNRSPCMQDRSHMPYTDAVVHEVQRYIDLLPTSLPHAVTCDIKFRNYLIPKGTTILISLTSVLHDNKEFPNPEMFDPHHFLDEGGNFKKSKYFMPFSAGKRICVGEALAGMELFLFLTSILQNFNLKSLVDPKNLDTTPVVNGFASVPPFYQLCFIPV
Sequence of CYP3A4 (P08684 whole entry): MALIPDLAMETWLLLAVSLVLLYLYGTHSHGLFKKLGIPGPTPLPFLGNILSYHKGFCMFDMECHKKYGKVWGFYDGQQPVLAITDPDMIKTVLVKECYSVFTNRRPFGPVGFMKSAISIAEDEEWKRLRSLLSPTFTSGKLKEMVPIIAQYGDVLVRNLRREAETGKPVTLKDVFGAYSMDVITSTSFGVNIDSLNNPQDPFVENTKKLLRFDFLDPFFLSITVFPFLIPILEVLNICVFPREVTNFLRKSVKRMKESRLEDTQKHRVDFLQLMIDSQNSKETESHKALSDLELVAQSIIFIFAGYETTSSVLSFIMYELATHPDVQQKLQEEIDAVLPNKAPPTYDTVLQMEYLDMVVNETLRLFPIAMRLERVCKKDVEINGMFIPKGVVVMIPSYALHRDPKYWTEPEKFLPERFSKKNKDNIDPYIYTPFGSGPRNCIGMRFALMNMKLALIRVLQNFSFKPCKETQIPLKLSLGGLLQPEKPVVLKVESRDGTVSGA
T4 sequence (P33261 whole entry): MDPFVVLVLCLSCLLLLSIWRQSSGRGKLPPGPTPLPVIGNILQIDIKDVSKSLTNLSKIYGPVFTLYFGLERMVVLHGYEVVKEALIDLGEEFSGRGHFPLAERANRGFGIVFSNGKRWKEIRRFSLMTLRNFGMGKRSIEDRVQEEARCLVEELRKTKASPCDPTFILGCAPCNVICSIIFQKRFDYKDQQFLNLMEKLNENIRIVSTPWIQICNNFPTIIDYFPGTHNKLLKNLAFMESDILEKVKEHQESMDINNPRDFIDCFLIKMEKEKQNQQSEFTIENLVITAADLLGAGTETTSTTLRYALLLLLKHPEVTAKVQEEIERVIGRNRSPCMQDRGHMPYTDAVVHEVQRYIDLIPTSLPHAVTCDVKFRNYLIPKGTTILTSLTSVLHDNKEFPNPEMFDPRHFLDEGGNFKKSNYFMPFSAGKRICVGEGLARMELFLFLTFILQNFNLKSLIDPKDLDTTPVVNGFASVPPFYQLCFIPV
T5 sequence (P10635 whole entry): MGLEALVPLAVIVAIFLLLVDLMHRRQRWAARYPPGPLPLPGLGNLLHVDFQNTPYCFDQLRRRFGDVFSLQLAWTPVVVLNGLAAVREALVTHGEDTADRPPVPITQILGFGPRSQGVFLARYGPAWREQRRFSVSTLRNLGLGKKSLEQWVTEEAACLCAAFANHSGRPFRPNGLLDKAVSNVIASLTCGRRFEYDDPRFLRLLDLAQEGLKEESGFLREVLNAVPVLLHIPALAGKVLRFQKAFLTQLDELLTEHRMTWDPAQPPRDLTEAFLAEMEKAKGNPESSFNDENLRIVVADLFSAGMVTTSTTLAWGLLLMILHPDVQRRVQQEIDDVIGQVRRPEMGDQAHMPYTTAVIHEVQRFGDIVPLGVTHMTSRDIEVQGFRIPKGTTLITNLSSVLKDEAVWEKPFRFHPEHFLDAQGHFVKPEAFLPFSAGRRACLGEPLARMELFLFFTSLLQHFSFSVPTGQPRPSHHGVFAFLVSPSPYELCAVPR

SMILES | inhibition at 10 µM (CYP2B6) [%] | inhibition at 10 µM (CYP2C9) [%] | inhibition at 10 µM (CYP1A) [%] | inhibition at 10 µM (CYP2C8) [%] | inhibition at 10 µM (CYP2C19) [%] | inhibition at 10 µM (CYP2D6) [%] | inhibition at 10 µM (CYP3A4&5) [%] | half-life at 1 μM [1, 3] [h] | half-life at 1 μM [1, 4] [h] | inhibition at 10 µM (CYP3A4) [%] | IC50 [2] [nM]
CCc1nccn1Cc1ccc(-c2cc(CC(C)C)sc2S(=O)(=O)NC(=O)NCc2ccccn2)cc1 [Example 9, 3-(3-{p-[(2-Ethyl-1H-imidazol-1-yl)methyl]phenyl}-5-isobutyl-2-thienylsulfonyl)-1-[(2-pyridyl)methyl]urea] | 0 | 28 | -9 | 52 | 18 | 24 | 17 | > 1 | > 1 | -19 | –
Cc1nccn1Cc1ccc(-c2cc(CC(C)C)sc2S(=O)(=O)NC(=O)NCC(F)(F)F)c(F)c1 [Example 27, 3-(3-{2-Fluoro-4-[(2-methyl-1H-imidazol-1-yl)methyl]phenyl}-5-isobutyl-2-thienylsulfonyl)-1-(2,2,2-trifluoroethyl)urea] | – | – | – | – | – | – | – | – | – | – | 61
CCc1nccn1Cc1ccc(-c2cc(CC(C)C)sc2S(=O)(=O)NC(=O)NCCC(F)(F)F)cc1F.O=C(O)C(F)(F)F [Example 30, 1-[(3-{4-[(2-ethyl-1H-imidazol-1-yl)methyl]-3-fluorophenyl}-5-(2-methylpropyl)thiophen-2-yl)sulfonyl]-3-(3,3,3-trifluoropropyl)urea trifluoroacetic acid] | 30 | 61 | -1 | 64 | 53 | 12 | 13 | 0.667 | > 1 | -3 | –
Cc1cn(Cc2ccc(-c3cc(CC(C)C)sc3S(=O)(=O)NC(=O)NCCC(F)(F)F)cc2)c(C)n1 [Example 8, 3-(3-{p-[(2,4-Dimethyl-1H-imidazol-1-yl)methyl]phenyl}-5-isobutyl-2-thienylsulfonyl)-1-(3,3,3-trifluoropropyl)urea] | 18.8 | 24 | 21.2 | 60.2 | 95.8 | 0 | 29.8 | 0.767 | > 1 | 17.5 | –
Cc1nccn1Cc1ccc(-c2cc(CC(C)C)sc2S(=O)(=O)NC(=O)NCCC(F)(F)F)cc1 [Example 3, 3-(5-isobutyl-3-{p-[(2-Methyl-1H-imidazol-1-yl)methyl]phenyl}-2-thienylsulfonyl)-1-(3,3,3-trifluoropropyl)-urea] | 9.9 | 21.6 | -4.2 | 25.3 | 37.3 | 5.5 | 8.2 | > 1 | > 1 | 4.1 | –
Cc1nccn1Cc1ccc(-c2cc(CC(C)C)sc2S(=O)(=O)NC(=O)NCCCF)cc1 [Example 28, 1-(3-Fluoropropyl)-3-(5-isobutyl-3-{p-[(2-methyl-1H-imidazol-1-yl)methyl]phenyl}-2-thienylsulfonyl)urea] | – | – | – | – | – | – | – | > 1 | > 1 | – | 32
Cc1nccn1Cc1ccc(-c2cc(CC(C)C)sc2S(=O)(=O)NC(=O)NCCCC(F)(F)F)cc1F [Example 18, 3-(3-{3-Fluoro-4-[(2-methyl-1H-imidazol-1-yl)methyl]phenyl}-5-isobutyl-2-thienylsulfonyl)-1-(4,4,4-trifluorobutyl)urea] | 59 | 62 | 15 | 72 | 78 | 20 | 24 | 0.5 | > 1 | 50 | –
Cc1nccn1Cc1ccc(-c2cc(CC(C)C)sc2S(=O)(=O)NC(=O)NCc2ccccc2)cc1F [Example 12, 1-Benzyl-3-(3-{3-fluoro-4-[(2-methyl-1H-imidazol-1-yl)methyl]phenyl}-5-isobutyl-2-thienylsulfonyl)urea] | 33 | 64 | 4 | 51 | 62 | 58 | 24 | – | – | 32 | –
Cc1nccn1Cc1ccc(-c2cc(CC(C)C)sc2S(=O)(=O)NC(=O)NCCC(F)(F)F)c(F)c1 [Example 26, 3-(3-{2-Fluoro-4-[(2-methyl-1H-imidazol-1-yl)methyl]phenyl}-5-isobutyl-2-thienylsulfonyl)-1-(3,3,3-trifluoropropyl)urea] | – | – | – | – | – | – | – | > 1 | > 1 | – | 25
Cc1nccn1Cc1ccc(-c2cc(CC(C)C)sc2S(=O)(=O)NC(=O)NCCC(F)F)cc1 [Example 29, 1-(3,3-Difluoropropyl)-3-(5-isobutyl-3-{p-[(2-methyl-1H-imidazol-1-yl)methyl]phenyl}-2-thienylsulfonyl)urea] | – | – | – | – | – | – | – | – | – | – | 33
